Reference: PMC5913239, “Targeting GLP-1 receptor trafficking to improve agonist efficacy” (Nature Communications, 2018)

How the values were obtained:
INS-1 832/3 cells = assay: Insulin secretion in INS-1 832/3 beta cells; format: cell-based, rat; details: INS-1 832/3, 16 h
Protocol: Cells were pre-incubated overnight in 3 mM glucose medium.
For human islets, acute incubations were performed in KHB buffer at the indicated concentration of glucose ± agonist[28]. Overnight incubations were performed in complete RPMI plus 11 mM glucose ± 100 nM agonist. Samples were obtained for secreted and, where indicated, total insulin, and analyzed by HTRF (Cisbio). Percentage of release was calculated, and agonist-stimulated results expressed relative to 11 mM glucose alone as insulin stimulation index.

SNAP-GLP-1R [1] = target: T1, SNAP-GLP-1R (Homo sapiens, UniProt P43220); assay: Competitive association kinetics (TR-FRET, competition with exendin-4-FITC), CHO-SNAP-GLP-1R cells; format: binding
Protocol: Association and dissociation rate constants were calculated using the kinetics of competitive binding algorithm in GraphPad Prism[43].

SNAP-GLP-1R [2] = target: T1, SNAP-GLP-1R; assay: GLP-1R recycling, plate reader surface labeling, CHO-SNAP-GLP-1R cells; format: cell-based
Protocol: (§1) GLP-1R internalization and recycling in CHO-SNAP-GLP-1R cells was measured by surface labeling with anti-GLP-1R antibody or the SNAP-tag probe Lumi4-Tb (Cisbio). […] Residual surface expression was determined from peptide- vs. control-treated wells.

GLP-1R [3] = target: T2, GLP-1R (Homo sapiens, UniProt P43220); assay: cAMP accumulation (HTRF) in PathHunter CHO-GLP-1R cells; format: cell-based; design: host or cells: PathHunter CHO-K1 reporter cells (purchased cell lines); details: ± 3 μM BETP, n=3
Protocol: Cyclic AMP accumulation was determined by HTRF (cAMP Dynamic 2, Cisbio). CHO-SNAP-GLP-1R were stimulated at 37 °C in serum-free DMEM. For dose responses, a full GLP-1 curve was included to establish the assay Emax with curve fitting to a four-parameter fit.

GLP-1R [4] = target: T2, GLP-1R; assay: β-arrestin-2 recruitment, PathHunter CHO-GLP-1R cells; format: cell-based; design: host or cells: PathHunter CHO-K1 reporter cells (purchased cell lines); details: ± 3 μM BETP, n=3
Description: A full GLP-1 dose response was included to establish the assay Emax.

GLP-1R [5] = target: T2, GLP-1R; assay: Agonist-induced GLP-1R internalization (cell surface receptor loss), post-stimulation Lumi4-Tb surface labeling, CHO-SNAP-GLP-1R cells; format: cell-based; details: ± 3 μM BETP, 30 min, 100 nM exendin-4, n=4
Protocol: as §1

T1 sequence (P43220 24-463): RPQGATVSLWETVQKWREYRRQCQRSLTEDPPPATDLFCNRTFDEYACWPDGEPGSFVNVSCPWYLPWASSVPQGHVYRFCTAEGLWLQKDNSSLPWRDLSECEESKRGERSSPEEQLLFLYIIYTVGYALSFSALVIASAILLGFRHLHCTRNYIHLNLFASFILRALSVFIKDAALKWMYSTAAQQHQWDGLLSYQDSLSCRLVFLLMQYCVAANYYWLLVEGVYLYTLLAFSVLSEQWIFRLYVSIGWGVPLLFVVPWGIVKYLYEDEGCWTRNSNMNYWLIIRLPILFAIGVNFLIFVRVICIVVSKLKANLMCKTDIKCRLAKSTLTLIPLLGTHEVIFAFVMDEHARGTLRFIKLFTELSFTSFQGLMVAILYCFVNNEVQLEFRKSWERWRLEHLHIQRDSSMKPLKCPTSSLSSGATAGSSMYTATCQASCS
T2 sequence (P43220 24-463): as above

| Compound | prolonged insulin secretion, comparison with licensed GLP-1R agonists (INS-1 832/3 cells; 100 nM, tested in parallel, n=6) | agonist residence time (comparison in words) (SNAP-GLP-1R [1]; CHO-SNAP-GLP-1R, normalized to exendin-4-FITC response per assay, n=5) | GLP-1R recycling (comparison in words) (SNAP-GLP-1R [2]; 100 nM, 60 min, with 10 μM exendin(9-39), n=5) | effect on exendin-4 cAMP response (GLP-1R [3]) | effect on exendin-4-induced prolonged insulin secretion (INS-1 832/3 cells; ± 3 µM BETP, n=5) | effect on exendin-4 β-arrestin-2 recruitment response (GLP-1R [4]) | effect on exendin-4 association rate (SNAP-GLP-1R [1]; ± 10 μM BETP, n=4) | effect on exendin-4 residence time (SNAP-GLP-1R [1]; ± 10 μM BETP, n=4) | effect on exendin-4-induced internalization (GLP-1R [5]) | effect on GLP-1R recycling after exendin-4 exposure (SNAP-GLP-1R [2]; ± 3 μM BETP, 60 min recycling, 100 nM exendin-4, n=4) |
| --- | --- | --- | --- | --- | --- | --- | --- | --- | --- | --- |
| Dulaglutide | closest to ex-phe1 | shorter than other compounds | modestly increased recycling | – | – | – | – | – | – | – |
| CC[S+]([O-])c1nc(-c2cccc(OCc3ccccc3)c2)cc(C(F)(F)F)n1 (stereo not shown) [BETP, 4-(3-(benzyloxy)phenyl)-2-(ethylsulfinyl)-6-(trifluoro-methyl)pyrimidine] | – | – | – | did not affect | reduced | did not affect | without changes | increased | minimal effect | slowed |
